# From PubChem BioAssay AID2060488 (Molecular Pharmacology Branch, DTP, NCI, 2025)
# Tested on: 966289-007-R4-J1-PDC complex spheroid viability
# Assay: Anticancer human tumor 966289-007-R4-J1-PDC patient-derived pancreatic adenocarcinoma cell line growth inhibition [GQUAD]
# Details: for IC50: curve of first compound; for viability, T/C: stronger effect = lower value
# Outline: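 Viability of tumor cells grown as complex spheroids with endothelial and stromal cells, exposed to drug combinations. Top concentration at or near clinical Cmax (else 10 microM), diluted in half-log increments.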
# [1] = second compound 0.0316 µM, first compound 0.0316 µM
# [2] = second compound 0.0316 µM, first compound 0.1 µM
# [3] = second compound 0.0316 µM, first compound 0.316 µM
# [4] = second compound 0.0316 µM, first compound 1 µM
# [5] = second compound 0.0316 µM, first compound 3.16 µM
# [6] = second compound 0.0316 µM, first compound 10 µM
# [7] = second compound 0.1 µM, first compound 0.0316 µM
# [8] = second compound 0.1 µM, first compound 0.1 µM
# [9] = second compound 0.1 µM, first compound 0.316 µM
# [10] = second compound 0.1 µM, first compound 1 µM
# [11] = second compound 0.1 µM, first compound 3.16 µM
# [12] = second compound 0.1 µM, first compound 10 µM
# [13] = second compound 0.316 µM, first compound 0.0316 µM
# [14] = second compound 0.316 µM, first compound 0.1 µM
# [15] = second compound 0.316 µM, first compound 0.316 µM
# [16] = second compound 0.316 µM, first compound 1 µM
# [17] = second compound 0.316 µM, first compound 3.16 µM
# [18] = second compound 0.316 µM, first compound 10 µM
# [19] = second compound 1 µM, first compound 0.0316 µM
# [20] = second compound 1 µM, first compound 0.1 µM
# [21] = second compound 1 µM, first compound 0.316 µM
# [22] = second compound 1 µM, first compound 1 µM
# [23] = second compound 1 µM, first compound 3.16 µM
# [24] = second compound 1 µM, first compound 10 µM
# [25] = second compound 3.16 µM, first compound 0.0316 µM
# [26] = second compound 3.16 µM, first compound 0.1 µM
# [27] = second compound 3.16 µM, first compound 0.316 µM
# [28] = second compound 3.16 µM, first compound 1 µM
# [29] = second compound 3.16 µM, first compound 3.16 µM
# [30] = second compound 3.16 µM, first compound 10 µM
# [31] = second compound 10 µM, first compound 0.0316 µM
# [32] = second compound 10 µM, first compound 0.1 µM
# [33] = second compound 10 µM, first compound 0.316 µM
# [34] = second compound 10 µM, first compound 1 µM
# [35] = second compound 10 µM, first compound 3.16 µM
# [36] = second compound 10 µM, first compound 10 µM
# 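Further: spheroids exposed to the agents for seven days before readout.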
# 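Wherever viability, T/C is given: percent viability relative to DMSO vehicle control wells taken as 100%.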
structure (smiles),measurement,setting,value
C=CCn1c(=O)c2cnc(Nc3ccc(N4CCN(C)CC4)cc3)nc2n1-c1cccc(C(C)(C)O)n1 + Cc1cnc(CNC(=O)c2c(=O)c3ccc(N4CCCN(C)CC4)nc3n3c2sc2ccccc23)cn1,IC50,second compound 0.0316 µM,236 nM
same,IC50,second compound 0.1 µM,< 31.6 nM
same,IC50,second compound 0.316 µM,< 31.6 nM
same,IC50,second compound 1 µM,< 31.6 nM
same,IC50,second compound 3.16 µM,< 31.6 nM
same,IC50,second compound 10 µM,< 31.6 nM
same,"viability, T/C",[1],105%
same,"viability, T/C",[2],90%
same,"viability, T/C",[3],36.5%
same,"viability, T/C",[4],4.74%
same,"viability, T/C",[5],1.95%
same,"viability, T/C",[6],1.13%
same,"viability, T/C",[7],29.4%
same,"viability, T/C",[8],15.7%
same,"viability, T/C",[9],8.35%
same,"viability, T/C",[10],3.91%
same,"viability, T/C",[11],2.06%
same,"viability, T/C",[12],1.35%
same,"viability, T/C",[13],6.91%
same,"viability, T/C",[14],6.09%
same,"viability, T/C",[15],5.08%
same,"viability, T/C",[16],4.04%
same,"viability, T/C",[17],2.11%
same,"viability, T/C",[18],1.81%
same,"viability, T/C",[19],4.63%
same,"viability, T/C",[20],4.25%
same,"viability, T/C",[21],3.87%
same,"viability, T/C",[22],2.82%
same,"viability, T/C",[23],1.24%
same,"viability, T/C",[24],1.48%
same,"viability, T/C",[25],2.9%
same,"viability, T/C",[26],2.75%
same,"viability, T/C",[27],2.77%
same,"viability, T/C",[28],1.24%
same,"viability, T/C",[29],0.09%
same,"viability, T/C",[30],0.38%
same,"viability, T/C",[31],0.06%
same,"viability, T/C",[32],0.11%
same,"viability, T/C",[33],0.12%
same,"viability, T/C",[34],0.28%
same,"viability, T/C",[35],0.46%
same,"viability, T/C",[36],0.13%
Nc1ccn(C2OC(CO)C(O)C2(F)F)c(=O)n1 (stereo unspecified) + Cc1[nH]c2ccc(F)cc2c1-c1nc2c3cccnc3c3ncccc3c2[nH]1,IC50,second compound 0.0316 µM,< 31.6 nM
same,IC50,second compound 0.1 µM,< 31.6 nM
same,IC50,second compound 0.316 µM,< 31.6 nM
same,IC50,second compound 1 µM,< 31.6 nM
same,IC50,second compound 3.16 µM,< 31.6 nM
same,IC50,second compound 10 µM,< 31.6 nM
same,"viability, T/C",[1],7.33%
same,"viability, T/C",[2],1.13%
same,"viability, T/C",[3],0.84%
same,"viability, T/C",[4],0.84%
same,"viability, T/C",[5],1.15%
same,"viability, T/C",[6],0.76%
same,"viability, T/C",[7],7.75%
same,"viability, T/C",[8],1%
same,"viability, T/C",[9],1.28%
same,"viability, T/C",[10],1.1%
same,"viability, T/C",[11],0.83%
same,"viability, T/C",[12],0.76%
same,"viability, T/C",[13],5.74%
same,"viability, T/C",[14],1.09%
same,"viability, T/C",[15],1.33%
same,"viability, T/C",[16],0.83%
same,"viability, T/C",[17],0.67%
same,"viability, T/C",[18],0.86%
same,"viability, T/C",[19],7.53%
same,"viability, T/C",[20],0.98%
same,"viability, T/C",[21],1.01%
same,"viability, T/C",[22],0.85%
same,"viability, T/C",[23],0.92%
same,"viability, T/C",[24],0.83%
same,"viability, T/C",[25],4.68%
same,"viability, T/C",[26],1.2%
same,"viability, T/C",[27],1.1%
same,"viability, T/C",[28],0.82%
same,"viability, T/C",[29],1.7%
same,"viability, T/C",[30],0.93%
same,"viability, T/C",[31],2.75%
same,"viability, T/C",[32],1.07%
same,"viability, T/C",[33],0.98%
same,"viability, T/C",[34],0.76%
same,"viability, T/C",[35],1.44%
same,"viability, T/C",[36],0.94%
CC1COCCN1c1cc(C2(S(C)(=N)=O)CC2)nc(-c2ccnc3[nH]ccc23)n1 (stereo unspecified) + CN(C)c1ccc(Nc2c3ccc(NC(=O)CCN4CCCC4)cc3nc3cc(NC(=O)CCN4CCCC4)ccc23)cc1,IC50,second compound 0.0316 µM,4690 nM
same,IC50,second compound 0.1 µM,4360 nM
same,IC50,second compound 0.316 µM,4250 nM
same,IC50,second compound 1 µM,4420 nM
same,IC50,second compound 3.16 µM,3930 nM
same,IC50,second compound 10 µM,2000 nM
same,"viability, T/C",[1],106%
same,"viability, T/C",[2],102%
same,"viability, T/C",[3],102%
same,"viability, T/C",[4],101%
same,"viability, T/C",[5],69.8%
same,"viability, T/C",[6],12.3%
same,"viability, T/C",[7],100%
same,"viability, T/C",[8],101%
same,"viability, T/C",[9],102%
same,"viability, T/C",[10],105%
same,"viability, T/C",[11],64.7%
same,"viability, T/C",[12],12.1%
same,"viability, T/C",[13],99.8%
same,"viability, T/C",[14],102%
same,"viability, T/C",[15],104%
same,"viability, T/C",[16],99.8%
same,"viability, T/C",[17],62.6%
same,"viability, T/C",[18],12.8%
same,"viability, T/C",[19],89.5%
same,"viability, T/C",[20],97%
same,"viability, T/C",[21],104%
same,"viability, T/C",[22],103%
same,"viability, T/C",[23],65.5%
same,"viability, T/C",[24],12.3%
same,"viability, T/C",[25],99.8%
same,"viability, T/C",[26],100%
same,"viability, T/C",[27],106%
same,"viability, T/C",[28],104%
same,"viability, T/C",[29],58.8%
same,"viability, T/C",[30],12.4%
same,"viability, T/C",[31],104%
same,"viability, T/C",[32],101%
same,"viability, T/C",[33],101%
same,"viability, T/C",[34],94%
same,"viability, T/C",[35],20.9%
same,"viability, T/C",[36],4.7%
